Patent US7338950B2, “Amide compounds as ion channel ligands and uses thereof” (Renovis, Inc., priority 2003, dated 2008)

The compounds below were run on VR1 receptor (293 cells expressing capsaicin-insensitive VR1 receptor variants) (assay: High throughput screening of VR1 antagonists using a calcium imaging assay (Fura2, pH 5.1 stimulus)). Conditions: 1 uM compound; inhibition of calcium ion influx.
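Wherever % Inhibition @ 1 uM is given: Fura2 ratiometric fluorescence read every 4 s over 3 min, response taken as peak ratio minus baseline before pre-treatment, compound pre-treatment preceding acid challenge.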
Description: A dual wavelength ratiometric dye, Fura2, was used as an indicator of relative levels of calcium ions in a 96 well format using a bench top scanning fluorometer with integrated fluidics and temperature control (Flex Station, Molecular Devices).
A dual wavelength ratiometric dye, Fura2, was used as an indicator of relative levels of [Ca2+] in a 96 well format using a bench top scanning fluorometer with integrated fluidics and temperature control (Flex Station, Molecular Devices).
293 cells were grown on PDL coated 96-well black-walled plates, in the presence of a DMEM medium containing 5% Penstrep, 5% Glutamax, 200 ug/mL Hygromycin, 5 μg/mL Blasticide and 10% heat inactivated FBS. Prior to assay, the cells were loaded with 5 μg/mL Fura2 in normal saline solution at 37° C. for 40 minutes. Cells were then washed with normal saline to remove the dye.
The assay consists of two stages; a pre-treatment phase followed by a treatment phase.
50 μl of a compound solution was added to the cells (Pre-treatment). Immediately following, 50 μl of the test compound in a saline solution at pH 5.1 was added. […] Changes in wavelength measurements were made throughout the course of the experiment in 4 second intervals over a period of 3 minutes. Responses were measured as peak fluorescence ratio after test compound addition minus baseline fluorescence ratio prior to pre-treatment and were calculated using SoftMaxPro softwareData were expressed as percentage inhibition calculated using Excel as follows:

Row | Structure (SMILES) | % Inhibition @ 1 uM
1 | O=C(Nc1ccccc1CCO)c1ccc(-c2ncccc2Cl)cc1 [Compound 1040] | +++ (compound exhibited 50-75% inhibition of calcium ion influx induced by capsaicin stimulation)
2 | O=C(Nc1ccncc1)c1ccc(-c2ncccc2Cl)cn1 [Compound 1330] | +++ (compound exhibited 50-75% inhibition of calcium ion influx induced by capsaicin stimulation)
3 | COc1ccc(NC(=O)c2ccc(-c3ncccc3Cl)c(OC)c2)cc1Cl [Compound 1229] | +++ (compound exhibited 50-75% inhibition of calcium ion influx induced by capsaicin stimulation)
4 | COc1cc(C(=O)NC(C)(C)C)ccc1-c1ncccc1Cl [Compound 1204] | + (compound exhibited 0-25% inhibition of calcium ion influx induced by capsaicin stimulation)
5 | O=C(Nc1cccnc1Cl)c1ccc(-c2ncccc2Cl)cc1 [Compound 1047] | ++ (compound exhibited 25-50% inhibition of calcium ion influx induced by capsaicin stimulation)
6 | CCOc1ccc(NC(=O)c2ccc(-c3ncccc3Cl)c(OC)c2)cc1 [Compound 1273] | + (compound exhibited 0-25% inhibition of calcium ion influx induced by capsaicin stimulation)
7 | COc1ccc(NC(=O)c2ccc(-c3ncccc3Cl)c(OC)c2)cc1OC [Compound 1257] | + (compound exhibited 0-25% inhibition of calcium ion influx induced by capsaicin stimulation)
8 | COc1ccc(NC(=O)c2ccc(-c3ncccc3Cl)c(F)c2)cn1 [Compound 1170] | ++ (compound exhibited 25-50% inhibition of calcium ion influx induced by capsaicin stimulation)
9 | COc1cc(C(=O)Nc2cc(OC)c(OC)c(OC)c2)ccc1-c1ncccc1Cl [Compound 1263] | ++++ (compound exhibited 75% or greater inhibition of calcium ion influx induced by capsaicin stimulation)
10 | CCOc1cccc(NC(=O)c2ccc(-c3ncccc3Cl)cn2)c1 [Compound 1364] | ++++ (compound exhibited 75% or greater inhibition of calcium ion influx induced by capsaicin stimulation)
11 | O=C(Nc1ccnc(Cl)c1)c1ccc(-c2ncccc2Cl)cc1 [Compound 1050] | ++++ (compound exhibited 75% or greater inhibition of calcium ion influx induced by capsaicin stimulation)
12 | COc1cc(NC(=O)c2ccc(-c3ncccc3Cl)cn2)cc(C(F)(F)F)c1 [Compound 1328] | + (compound exhibited 0-25% inhibition of calcium ion influx induced by capsaicin stimulation)
13 | O=C(Nc1ccc(C(F)(F)F)cc1)c1ccc(-c2ncccc2Cl)c(F)c1 [Compound 1152] | ++ (compound exhibited 25-50% inhibition of calcium ion influx induced by capsaicin stimulation)
14 | N#Cc1ccccc1NC(=O)c1ccc(-c2ncccc2Cl)cn1 [Compound 1309] | + (compound exhibited 0-25% inhibition of calcium ion influx induced by capsaicin stimulation)
15 | CC(C)(C)c1ccc(NC(=O)c2ccc(-c3ncccc3Cl)cc2F)cc1 [Compound 1103] | + (compound exhibited 0-25% inhibition of calcium ion influx induced by capsaicin stimulation)
16 | O=C(Nc1ccc(Cl)c(C(F)(F)F)c1)c1ccc(-c2ncccc2Cl)cc1 [Compound 1037] | +++ (compound exhibited 50-75% inhibition of calcium ion influx induced by capsaicin stimulation)

Row | Structure (SMILES) | % Inhibition @ 1 uM
17 | O=C(Nc1cccnc1Cl)c1ccc(-c2ncccc2Cl)cc1F [Compound 1118] | + (compound exhibited 0-25% inhibition of calcium ion influx induced by capsaicin stimulation)
18 | O=C(Nc1ccc2ccccc2c1)c1ccc(-c2ncccc2Cl)cc1F [Compound 1126] | ++ (compound exhibited 25-50% inhibition of calcium ion influx induced by capsaicin stimulation)
19 | CC(C)(C)NC(=O)c1ccc(-c2ncccc2Cl)c(F)c1 [Compound 1127] | + (compound exhibited 0-25% inhibition of calcium ion influx induced by capsaicin stimulation)
20 | COc1cc(C(=O)Nc2ccc(Cl)c(C(F)(F)F)c2)ccc1-c1ncccc1Cl [Compound 1231] | + (compound exhibited 0-25% inhibition of calcium ion influx induced by capsaicin stimulation)
21 | Cc1cccnc1NC(=O)c1ccc(-c2ncccc2Cl)cc1F [Compound 1112] | + (compound exhibited 0-25% inhibition of calcium ion influx induced by capsaicin stimulation)
22 | O=C(Nc1ncc(C(F)(F)F)cc1Cl)c1ccc(-c2ncccc2Cl)cc1F [Compound 1115] | + (compound exhibited 0-25% inhibition of calcium ion influx induced by capsaicin stimulation)
23 | O=C(Nc1ccncc1)c1ccc(-c2ncccc2Cl)cc1 [Compound 1024] | ++++ (compound exhibited 75% or greater inhibition of calcium ion influx induced by capsaicin stimulation)
24 | O=C(Nc1ccc(Cl)nc1)c1ccc(-c2ncccc2Cl)c(F)c1 [Compound 1169] | + (compound exhibited 0-25% inhibition of calcium ion influx induced by capsaicin stimulation)
25 | COc1cc(C(=O)Nc2cccc(C(F)(F)F)c2)ccc1-c1ncccc1Cl [Compound 1267] | ++ (compound exhibited 25-50% inhibition of calcium ion influx induced by capsaicin stimulation)
26 | O=C(Nc1cccc(Br)c1)c1ccc(-c2ncccc2Cl)cc1 [Compound 1038] | + (compound exhibited 0-25% inhibition of calcium ion influx induced by capsaicin stimulation)
27 | COc1cc(C(=O)Nc2ccc3cn[nH]c3c2)ccc1-c1ncccc1Cl [Compound 1264] | ++ (compound exhibited 25-50% inhibition of calcium ion influx induced by capsaicin stimulation)
28 | COc1cc(C(=O)Nc2ccc(Br)cn2)ccc1-c1ncccc1Cl [Compound 1243] | + (compound exhibited 0-25% inhibition of calcium ion influx induced by capsaicin stimulation)
29 | COc1cccc(NC(=O)c2ccc(-c3ncccc3Cl)cc2F)c1 [Compound 1091] | + (compound exhibited 0-25% inhibition of calcium ion influx induced by capsaicin stimulation)
30 | O=C(Nc1ccc(C2CCCCC2)cc1)c1ccc(-c2ncccc2Cl)cn1 [Compound 1320] | ++++ (compound exhibited 75% or greater inhibition of calcium ion influx induced by capsaicin stimulation)
31 | O=C(Nc1ccc(C(F)(F)F)cn1)c1ccc(-c2ncccc2Cl)cc1 [Compound 1067] | ++ (compound exhibited 25-50% inhibition of calcium ion influx induced by capsaicin stimulation)

The compounds below were run against T1, VR1 receptor (capsaicin induced current in dorsal root ganglion (DRG) neurons) (Rattus norvegicus, UniProt O35433) (assay: Whole-cell patch clamp electrophysiology, capsaicin induced current in DRG neurons). Conditions: 20 nM, 40 nM, 100 nM and 200 nM.
T1 construct: Dorsal root ganglion (DRG) neurons were recovered from either neonatal or adult rats; endogenous in cells; host or cells: primary rat dorsal root ganglion neurons
T1 sequence (O35433 whole entry): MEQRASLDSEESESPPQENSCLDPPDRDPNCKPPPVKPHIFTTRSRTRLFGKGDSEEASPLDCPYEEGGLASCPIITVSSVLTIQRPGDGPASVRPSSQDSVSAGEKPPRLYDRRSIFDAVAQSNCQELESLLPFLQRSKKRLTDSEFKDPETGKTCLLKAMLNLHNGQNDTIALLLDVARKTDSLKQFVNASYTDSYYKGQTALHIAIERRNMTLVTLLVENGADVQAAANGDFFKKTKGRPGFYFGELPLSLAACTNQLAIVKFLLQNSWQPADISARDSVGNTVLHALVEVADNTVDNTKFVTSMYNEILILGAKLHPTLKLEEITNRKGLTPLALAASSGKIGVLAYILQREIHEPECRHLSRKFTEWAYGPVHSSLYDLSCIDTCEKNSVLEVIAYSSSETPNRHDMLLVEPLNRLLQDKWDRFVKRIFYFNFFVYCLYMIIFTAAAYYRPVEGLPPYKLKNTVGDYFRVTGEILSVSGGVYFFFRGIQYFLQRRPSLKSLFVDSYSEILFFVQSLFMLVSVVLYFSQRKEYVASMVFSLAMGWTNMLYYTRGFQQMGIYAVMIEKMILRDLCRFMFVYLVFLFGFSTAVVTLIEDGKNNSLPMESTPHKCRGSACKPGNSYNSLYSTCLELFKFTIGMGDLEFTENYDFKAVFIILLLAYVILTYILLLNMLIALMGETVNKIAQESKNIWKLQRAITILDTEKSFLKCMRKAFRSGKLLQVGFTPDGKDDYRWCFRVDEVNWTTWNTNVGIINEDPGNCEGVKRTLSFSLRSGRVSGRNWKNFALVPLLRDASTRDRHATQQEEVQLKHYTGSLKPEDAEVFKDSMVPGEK
Assay type: cell-based
Description: Dorsal root ganglion (DRG) neurons were recovered from either neonatal or adult rats and plated onto poly-D-lysine coated glass coverslips. The plated neurons were transferred into a chamber to allow drug solutions to be added to the cells using a computer-controlled solenoid-valve based perfusion system. The cells were imaged using standard DIC optics. Cells were patched using finely-pulled glass electrodes. Voltage-clamp electrophysiology experiments were carried out using an Axon Instruments Multiclamp amplified controlled by pCLAMP8 software.
The cells were placed into a whole-cell voltage clamp and help at a voltage of −80 mV while monitoring the membrane current in gap-free recording mode. 500 nM capsaicin was added for 30 seconds as a control. Test compounds at various concentrations at ranging from (10-1000 nM) were added to the cells for 1 minute prior to a 30 second capsaicin application. Differences between control experiments and drug positive capsaicin experiments were used to determine the efficacy of each test compound. All compounds that inhibited capsaicin induced current greater than 50% were considered positives.

Row | dose response of inhibiting a capsaicin induced calcium ion influx (FIG. 4) | Structure (SMILES)
32 | increasing effectiveness | O=C(NCc1ccc(Cl)c(Cl)c1)c1ccc(-c2ncccc2Cl)cc1 [Compound 24]

Same assay, conditions: DRG neuron; 200 nM, treatment time 25 seconds; 500 nM capsaicin, rat DRG neurons

Row | inhibition at 0.2 µM [%] | Structure (SMILES)
33 | 100 | O=C(NCc1ccc(Cl)c(Cl)c1)c1ccc(-c2ncccc2Cl)cc1 [Compound 24]
